Literature values in patent publication US20020137785A1, “Inflammatory mechanism modulator composition and methods with anti-asthmatic properties” (priority 2001, published 2002).

Assays:
[1] = people with septic shock; NAC alone; reduced from 21 days
[2] = intravenous; coronary artery disease; tachycardia induced in the electrophysiology laboratory

Row | Compound | ventilator time (mechanical breathing) [1] | aborting monomorphic ventricular tachycardia [2]
1 | CC(=O)N[C@@H](CS)C(=O)O [NAC, N-acetyl-cysteine] | about 7 days | 
2 | O=S(=O)([O-])[O-].[Mg+2] [magnesium sulfate] |  | ineffective
